Reference: patent publication US20080003606A1, “DIAGNOSIS OF TAMOXIFEN SENSITIVITY” (priority 2004, published 2008)

System: ER positive invasive breast cancer
Assay: Randomized trial of 2 years of adjuvant tamoxifen vs no adjuvant treatment, survival analysed by cyclin D1/A2 expression and CCND1 amplification
Format: in vivo, human
Details: for Overall Survival RR / Recurrence Free Survival RR: Cox univariate, ER+, tamoxifen vs control (1.00)
Experimental: During 1984-1991, 564 premenopausal patients or patients under 50 years with stage 11 (pT2 N0 M0, pT1 N1 M0 and pT2, N1 M0) invasive breast cancer were enrolled in a randomized trial of 2 years of adjuvant tamoxifen treatment with a daily dosage of either 40 mg (study center 1) or 20 mg (study center 2) or no adjuvant treatment (detailed in [14]).
All available archived primary tumor specimens were collected (n=500). Areas with invasive cancer were marked on the H&E stained slides and two 0.6 mm tissue cores were taken from each donor block and mounted in a recipient block using an automated arrayer ((ATA-27, Beecher Inc, WI, USA).
For cyclin A2 expression, only the fraction of positively staining nuclei were calculated (405 cases) and subdivided into five groups based on the following score: 0 (0-1%), 1 (2-10%), 2 (11-25%), 3 (26-50%) and 4 (>50%). For cyclin D1, the nuclear fraction and intensity as well as the cytoplasmic staining intensity was evaluated (463 cases). The nuclear fractions were divided into the following five subgroups: 0 (0%), 1 (1-25%), 2 (26-50%), 3 (51-75%) and 4 (>75%). The nuclear and cytoplasmic intensity was evaluated as absent=0, weak=1, intermediate=2 and strong=3. The TMA:s had previously been analyzed immunohistochemically for estrogen- (ER) and progesterone (PR) receptor status (anti-ER Clone 6F11 and anti-PgR Clone 16) using the Ventana Benchmark system (Ventana Medical Systems Inc., AZ, USA). In line with the clinically established cut-off used for hormone receptor assessment, tumors with more than 10% positively staining nuclei were considered positive.
For fluorescence in situ (FISH) analysis of CCND1 gene amplification, two direct-labeled probes were used, LSI cyclin D1 (11q13) SpectrumOrange against CCND1 (11q13) and CEP 11 SpectrumGreen (Vysis Inc., Illinois, USA) against the centromere of chromosome 11. The FISH analysis was performed according to the standard protocol recommended by the manufacturer and according to “LSI® Locus Specific Identifier DNA probes” from Vysis Inc., Illinois. Briefly, tissue sections were de-paraffinized in xylene and alcohol and air-dried. The slides were then microwave-treated in Target Retrieval Solution pH 7.3 (DAKO A/S, Glostrup, Denmark) for 5+5 minutes and treated with 100 μl pepsin (Digest-All 3, Zymed, California, USA) for 8 minutes in 37° C. and washed in water. The de-paraffinized slides were denatured in 70% formamide/2×SSC at 73° C. for 5 minutes followed by dehydration in graded ethanol. A denatured mixture of 1 μl LSI probe, 2 μl pH2O and 7 μl LSI hybridization buffer was added on each slide and incubated at 37° C. overnight. The slides were then washed with 0.4×SSC/0.3% Nonidet P40 at 37±1° C. for 2 minutes followed by a 2×SSC/0.1% NP40 wash at ambient temperature for 1 minute to remove non-specifically bound probe.
For evaluation, the CCND1 gene was considered amplified when the ratio of orange/green was >1. Non-amplified cases were classified as 0, cases with up to 10 copies as 1 and >10 copies as 2.
Baseline prognostic and patient characteristics between the original study group, patients with available FISH data (n=280) and patients without FISH data (n=284) were compared using the chi-square test to exclude the possibility of selection bias. Baseline prognostic and patients characteristics were also compared between amplified and non-amplified cases using the same approach as well as the marker distribution according to trial arm. For evaluation of treatment response, only tumors with >10% ER positivity were included. Kaplan-Meier and log-rank tests and univariate Cox regression analyses were used for recurrence free survival (RFS), breast cancer survival (BCS) and overall survival (OS).

[1] = Multivariate Cox model with A2 NF and interaction variable, adjusted for age, tumor size, NHG, Ki-67 and nodal status
[2] = Multivariate Cox model with CCND1 amplification and interaction variable, adjusted for age, tumor size, NHG, Ki-67 and nodal status
[3] = Multivariate Cox model with D1 NF and interaction variable, adjusted for age, tumor size, NHG, Ki-67 and nodal status
[4] = Multivariate Cox model with D1 NI and interaction variable, adjusted for age, tumor size, NHG, Ki-67 and nodal status
[5] = Multivariate Cox model, adjusted for age, tumor size, NHG, Ki-67 and nodal status

## CC/C(=C(\c1ccccc1)c1ccc(OCCN(C)C)cc1)c1ccccc1 [tamoxifen]
CCND1-amplified tumors without high cyclin D1 protein intensity or >50% cyclin D1 positive cells
  tamoxifen effect: clear adverse tamoxifen effect
CCND1 amplified
  Overall Survival RR: 2.13
  Recurrence Free Survival RR: 2.22
CCND1 not amplified
  Overall Survival RR: 0.43
  Recurrence Free Survival RR: 0.39
Cyclin A2 nf <10%
  Overall Survival RR: 0.72
  Recurrence Free Survival RR: 0.51
Cyclin A2 nf >10%
  Overall Survival RR: 0.92
  Recurrence Free Survival RR: 0.86
Cyclin D1 nf <25%
  Overall Survival RR: 0.65
  Recurrence Free Survival RR: 0.62
Cyclin D1 nf >25%
  Overall Survival RR: 0.78
  Recurrence Free Survival RR: 0.61
Cyclin D1 ni high
  Overall Survival RR: 0.77
  Recurrence Free Survival RR: 0.84
Cyclin D1 ni low/intermediate
  Overall Survival RR: 0.72
  Recurrence Free Survival RR: 0.59
[1]
  Overall survival RR, Treatment tamoxifen vs control: 0.64
  Recurrence free survival RR, Treatment tamoxifen vs control: 0.46
[2]
  Overall survival RR, Treatment tamoxifen vs control: 0.41
  Recurrence free survival RR, Treatment tamoxifen vs control: 0.37
[3]
  Overall survival RR, Treatment tamoxifen vs control: 0.67
  Recurrence free survival RR, Treatment tamoxifen vs control: 0.62
[4]
  Overall survival RR, Treatment tamoxifen vs control: 0.78
  Recurrence free survival RR, Treatment tamoxifen vs control: 0.62
[5]
  Overall survival RR, Interaction variable tamoxifen × A2 nf: 1.40
  Overall survival RR, Interaction variable tamoxifen × CCND1: 5.85
  Overall survival RR, Interaction variable tamoxifen × D1 nf: 1.29
  Overall survival RR, Interaction variable tamoxifen × D1 ni: 1.00
  Recurrence free survival RR, Interaction variable tamoxifen × A2 nf: 1.93
  Recurrence free survival RR, Interaction variable tamoxifen × CCND1: 6.26
  Recurrence free survival RR, Interaction variable tamoxifen × D1 nf: 0.98
  Recurrence free survival RR, Interaction variable tamoxifen × D1 ni: 1.27
Node positive patients, CCND1-amplified tumors
  difference in treatment response, multivariate interaction variable: more then nine-fold
Node positive patients, amplified tumors, treated arm (untreated 68%)
  10 year RFS: 13%
Patients with CCND1-amplified tumors, multivariate interaction analyses
  difference in tamoxifen treatment effect: 6-9 fold
Patients with amplified tumors, tamoxifen treated arm (untreated 62%)
  10 years RFS: 29%
Patients with amplified tumors, tamoxifen treated arm (untreated 74%)
  10 years OS: 56%
Patients with non-amplified tumors, treatment arm (control 44%)
  proportional 10-year recurrence free survival (RFS): 74%
Patients with non-amplified tumors, treatment arm (control 61%)
  10-year overall survival (OS): 78%
Tumors with >10% positive cyclin A2 nuclei
  tamoxifen response: lack of response
Tumors with less than 10% positive cyclin A2 nuclei
  tamoxifen response: responded well
Tumors with strong nuclear cyclin D1 staining intensity
  tamoxifen response regarding recurrence free survival (RFS): did not respond
